Data from PMC8864676 (Organic & biomolecular chemistry, 2022).
Several values for one entry are separate records, joined by “and”; a condition that tells them apart may be missing. Equal values may be shown once.

How the values were obtained:
[1] = target: T1, PutA86–630 (PRODH domain of proline utilization A) (Escherichia coli, UniProt P09546); type: biochemical; details: for ΔΔG, loss of binding energy relative to 1 / fold change in Ki relative to 1: chemical double mutant cycle; for fold change in Ki relative to 1: from Ki values; for kcat: kcat of PutA86–630 from the global fit of the data set with this inhibitor
[2] = target: T1, PutA86–630 (PRODH domain of proline utilization A); assay: Initial single-point screening of compounds for inhibition of PRODH activity; type: biochemical; details: for inhibition at 5000 µM: read-out: inhibition in the single-point assay; for inhibition in the single-point assay (in words): 13, 15, 16 compared with 1
PRODH = details: cited from earlier work
[3] = 5 mM inhibitor, 200 mM L-proline

T1 sequence (P09546 86-630): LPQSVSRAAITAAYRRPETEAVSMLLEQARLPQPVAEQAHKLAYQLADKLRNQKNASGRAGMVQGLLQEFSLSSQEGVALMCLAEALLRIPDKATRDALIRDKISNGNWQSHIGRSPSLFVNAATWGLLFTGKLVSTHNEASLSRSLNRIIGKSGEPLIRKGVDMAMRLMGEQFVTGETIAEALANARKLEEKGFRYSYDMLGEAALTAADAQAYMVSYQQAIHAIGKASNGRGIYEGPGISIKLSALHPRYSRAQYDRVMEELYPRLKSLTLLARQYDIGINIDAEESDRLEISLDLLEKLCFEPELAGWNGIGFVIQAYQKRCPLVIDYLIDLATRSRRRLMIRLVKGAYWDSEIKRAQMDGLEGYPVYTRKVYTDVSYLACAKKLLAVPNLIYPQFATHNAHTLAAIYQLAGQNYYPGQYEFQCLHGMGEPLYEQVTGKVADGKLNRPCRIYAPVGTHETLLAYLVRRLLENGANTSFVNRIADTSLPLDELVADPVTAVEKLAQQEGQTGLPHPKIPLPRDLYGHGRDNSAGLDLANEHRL

In the case of O=C(O)[C@@H]1CCO1 [Compound 18, (2S)-oxetane-2-carboxylic acid], the “ΔΔG, loss of binding energy relative to 1” value ([1]; calculated from Ki values) is reported as 0.95 kcal/mol, the “fold change in Ki relative to 1” value [1] is reported as 5 fold and the kcat [1] is reported as 1.42 ± 0.04 s⁻¹. For the same compound, the “reduction of enzyme activity relative to the no-inhibitor control” value [2, 3] was “over 2 fold” and the inhibition at 5000 µM [2] was greater than 50%.

In the case of “(S)-(−)-tetrahydro-2-furoic acid [Compound 1, reference compound]”, the kcat [1] is listed as 1.16 ± 0.03 s⁻¹, the Ki (PRODH) is listed as 0.2 to 1 mM and the “enzyme activity relative to the no-inhibitor control” value [2, 3] is listed as 12%.

With O=C1CC(C(=O)O)C1 [Compound 10, 3-oxocyclobutanecarboxylic acid] the “inhibition in the single-point assay (in words)” value (“inhibition … (in words)” below) [2, 3] was “very little inhibition”.

In the case of O=C(O)C1CCC1 [Compound 3, cyclobutanecarboxylic acid], the “ΔΔG, improvement of affinity relative to 16” value ([1]; cyclopentane of 16 decreased to cyclobutane, calculated from Ki values) is reported as 0.71 kcal/mol and 0.7 kcal/mol, the kcat [1] is reported as 1.47 ± 0.05 s⁻¹ and the “ΔΔG, loss of binding energy relative to 18” value ([1]; removing the O heteroatom from 18, calculated from Ki values) is reported as “about 0.2 kcal/mol”. For the same compound, the “reduction of enzyme activity relative to the no-inhibitor control” value [2, 3] was “over 2 fold” and the inhibition at 5000 µM [2] was greater than 50%.

With NC(=O)[C@@H]1CCCO1 [Compound 13, (S)-(−)-tetrahydrofuran-2-carboxamide] the “inhibition … (in words)” value [2, 3] was “decreases inhibition”.

For O=C(O)C1CC1 [Compound 4, cyclopropanecarboxylic acid], the kcat [1] was 1.20 ± 0.03 s⁻¹ and the “ΔΔG, decrease of affinity relative to 3” value ([1]; ring size decreased from cyclobutane to cyclopropane, calculated from Ki values) was 0.3 kcal/mol.

In the case of C[C@H](O)C(=O)O [L-lactic acid], the Ki (PRODH) is given as roughly 1 mM.

For CC(=O)O [acetic acid], the Ki (PRODH) is given as roughly 30 mM.

In the case of CCC(=O)C(=O)O [Compound 17, 2-oxobutyric acid], the kcat [1] is reported as 1.14 ± 0.02 s⁻¹ and the inhibition at 5000 µM [2] is reported as greater than 50%.

For O=C(O)C1CCCCO1 (centres unmarked) [Compound 15, tetrahydropyran-2-carboxylic acid], the “inhibition … (in words)” value [2, 3] was “severely decreases inhibition”.

With O=C(O)C1CCCC1 [Compound 16, cyclopentanecarboxylic acid] the “ΔΔG, loss of binding energy relative to 1” value ([1]; calculated from Ki values) was roughly 2 kcal/mol, the “fold change in Ki relative to 1” value [1] was 20 fold and the kcat [1] was 1.35 ± 0.04 s⁻¹. The “inhibition … (in words)” value [2, 3] was “severely decreases inhibition”.
